Series [1] deals with Mycobacterium tuberculosis. Description: microbe, parasite or virus in culture.
Description: Antimicrobial activity against Mycobacterium tuberculosis
The subject of series [2] is Mycobacterium tuberculosis. Description: Antimicrobial activity against compound-susceptible Mycobacterium tuberculosis. The class given is functional.
Series [3] is described as follows: Half life in human. Conditions: in vivo. Type of series: ADME, organism-based.
A short description of series [4]: Tmax in human. The class given is ADME, organism-based. Conditions: in vivo.
In series [5] the test system is Mycobacterium tuberculosis. The class given is functional.
A short description of series [6]: Oral bioavailability in healthy human at 400 mg/kg, po. Type of series: ADME, organism-based. Conditions: in vivo.
The nature of series [7]: Renal excretion in healthy human at 400 mg/kg, po administered as single dose. The class given is ADME, organism-based, Kidney. More on the design: dose 400 mg/kg, route oral. The following applies: urine, read-out: Activity.
Series [8] in a line: clinical. The following applies: human, in vivo, po, 400 mg/kg.
Description: Tmax in patients with pulmonary tuberculosis at 400 mg/kg, po
A short description of series [9]: clinical. The following applies: human, plasma, po, 400 mg/kg.
Description: Plasma protein binding in healthy human at 400 mg/kg, po
Series [10] is described as follows: AUC in healthy human at 400 mg/kg, po. The class given is ADME, organism-based. On the set-up: dose 400 mg/kg, route oral. The following applies: plasma.
Series [11] can be described thus: Drug excretion in urine of healthy human at 800 mg/kg. Type of series: ADME, organism-based. On the set-up: dose 800 mg/kg. Conditions: read-out: Activity.
The nature of series [12]: Drug excretion in feces of healthy human at 800 mg/kg. Type of series: ADME, organism-based. Conditions: faeces, read-out: Activity. More on the design: dose 800 mg/kg.
For series [13], the system named is Mycobacterium tuberculosis. Description: microbe, parasite or virus in culture. This is another data set of the same source.
Description: Antimicrobial activity against rifampicin-sensitive Mycobacterium tuberculosis
Series [14] in a line: Half life in healthy human. The class given is ADME, organism-based. The following applies: in vivo.
Series [15] is described as follows: Tmax in healthy human. The class given is ADME, organism-based. Conditions: in vivo.
The nature of series [16]: Drug excretion in feces of healthy human. Type of series: ADME. The following applies: faeces, read-out: Activity.
Series [17] is described as follows: Drug excretion in urine of healthy human. The class given is ADME, tissue-based. The following applies: read-out: Activity.
Series [18] can be described thus: Oral bioavailability in healthy human at 10 mg/kg, po. Type of series: ADME, organism-based. Conditions: in vivo.
Series [19] in a line: AUC in healthy human at 10 mg/kg, po. Type of series: ADME, organism-based. On the set-up: dose 10 mg/kg, route oral. Conditions: plasma.
A short description of series [20]: Tmax in healthy human at 10 mg/kg, po. Type of series: ADME, organism-based. On the set-up: dose 10 mg/kg, route oral. The following applies: in vivo.
Series [21] is described as follows: Plasma protein binding in healthy human at 10 mg/kg, po. Type of series: ADME, organism-based. On the set-up: dose 10 mg/kg, route oral. Conditions: read-out: PPB (converted).
Another series deals with Mycobacterium avium. Description: Antimicrobial activity against Mycobacterium avium. The class given is functional.
Series [22] can be described thus: clinical. Conditions: human, in vivo, po, 10 mg/kg.
The nature of series [23]: AUC in healthy human at 600 mg/kg, po. More on the design: dose 600 mg/kg, route oral. The following applies: plasma. The class given is ADME, organism-based.
Series [24] is described as follows: Cmax in healthy human at 600 mg/kg, po. More on the design: dose 600 mg/kg, route oral. Type of series: ADME, organism-based. Conditions: in vivo.
A short description of series [25]: Tmax in healthy human at 600 mg/kg, po. On the set-up: dose 600 mg/kg, route oral. Conditions: in vivo. Type of series: ADME, organism-based.
Series [26] can be described thus: Half life in healthy human at 600 mg/kg, po. Type of series: ADME, organism-based. On the set-up: dose 600 mg/kg, route oral. The following applies: in vivo.
Series [27] can be described thus: Plasma protein binding in healthy human at 600 mg/kg, po. Type of series: ADME, organism-based. On the set-up: dose 600 mg/kg, route oral. Conditions: read-out: PPB (converted).
A short description of series [28]: Ratio of AUC to MIC against Mycobacterium avium. Type of series: functional.
A short description of series [29]: Plasma protein binding in human at 0.1 to 2.5 ug/ml by ultracentrifugation. Type of series: ADME, cell-free. Conditions: read-out: PPB (converted).
Series [30] can be described thus: Plasma protein binding in Beagle dog at 0.1 to 2.5 ug/ml by ultracentrifugation. Type of series: ADME, cell-free, Canis lupus familiaris. Conditions: read-out: PPB (converted).
Series [31] can be described thus: Plasma protein binding in Fischer rat at 0.1 to 2.5 ug/ml by ultracentrifugation. Type of series: ADME, cell-free. Conditions: read-out: PPB (converted).
A short description of series [32]: Plasma protein binding in CD2F1 mouse at 0.1 to 2.5 ug/ml by ultracentrifugation. Type of series: ADME, cell-free. The following applies: read-out: PPB (converted).

SMILES strings stand for the structures. In brackets after ≈: the same amount, converted by molar mass.

In general, half-life refers to the time needed for the level to fall by half in the phase considered. A low value points to rapid decline. Broadly, the Tmax is the time from dosing to the highest level. Usually bioavailability stands for the share of a dose that reaches the circulation, judged against a reference dose that is usually intravenous. Read a high bioavailability as good availability. One may read the AUC as concentration integrated over time. As usually defined, the Cmax is the maximum level reached in the sampled fluid or tissue.

In [1], `Cc1c(CN2CCN(c3ccc(C(F)(F)F)cc3)CC2)cc(-c2ccccc2)n1NC(=O)c1ccncc1` returned an MIC90 of 0.25 µg/mL (≈ 0.481 µM).
The compound `C[C@]1(COc2ccc(N3CCC(Oc4ccc(OC(F)(F)F)cc4)CC3)cc2)Cn2cc([N+](=O)[O-])nc2O1` registered an MIC in series [2] of 0.006 µg/mL (≈ 0.0112 µM).
Turning to `COc1nc2ccc(Br)cc2cc1[C@@H](c1ccccc1)[C@@](O)(CCN(C)C)c1cccc2ccccc12` [BEDAQUILINE], the half-life in [3] was 24 h. Also, in [4], the time to peak (Tmax) was 5 h. Moreover, the MIC in [2] was determined as 0.03 µg/mL (≈ 0.054 µM).
As for `CC[C@@H](CO)NCCN[C@@H](CC)CO` [ETHAMBUTOL], in series [5], the Activity was found to be 26%.
`COc1c(N2CCNC(C)C2)c(F)cc2c(=O)c(C(=O)O)cn(C3CC3)c12` (stereo unspecified) [GATIFLOXACIN] displayed a bioavailability in [6] of 96%. Also, in series [7], the dose excreted amounted to 77%. In addition, in the series “clinical [8]”, the Tmax was determined as 1.5 h. Moreover, in the series “clinical [9]”, the fraction unbound was 0.8.
Consider `COc1c(N2C[C@@H]3CCCN[C@@H]3C2)c(F)cc2c(=O)c(C(=O)O)cn(C3CC3)c12` [MOXIFLOXACIN], for which the bioavailability in [6] turned out to be 86%. The same compound had an AUC in series [10] of 26900 ng·h/mL. The dose excreted in [11] amounted to 20%; in series [12], 25%. In series [5], this compound came in with an Activity of 37%. Besides, in the series “clinical [8]”, the Tmax stood at 1 h. This compound registered an MIC in series [13] of 0.25 µg/mL (≈ 0.623 µM).
As for `O=[N+]([O-])c1cn2c(n1)OC[C@@H](OCc1ccc(OC(F)(F)F)cc1)C2` [PRETOMANID], the MIC in series [2] came out at 0.015 µg/mL (≈ 0.0418 µM). For the same compound, in series [14], the half-life is 18 h. Further, the Tmax in [15] came to 4 h. Also, the dose excreted in [16] stood at 26%; in series [17], 65%.
Compound `CO[C@H]1/C=C/O[C@@]2(C)Oc3c(C)c(O)c4c(O)c(c(/C=N/N5CCN(C)CC5)c(O)c4c3C2=O)NC(=O)/C(C)=C\C=C\[C@H](C)[C@H](O)[C@@H](C)[C@@H](O)[C@@H](C)[C@H](OC(C)=O)[C@@H]1C` [RIFAMPIN] came in with a bioavailability in [18] of 68%. The AUC in [19] was determined as 21500 ng·h/mL. The Tmax in series [20] was determined as 1.5 h. In addition, in series [21], the fraction unbound was 0.15. Moreover, the MIC (in the series on Mycobacterium avium; in series [1]) was 0.15 µg/mL (≈ 0.182 µM) each time. In the series “clinical [22]”, the peak level (Cmax) was 8000 ng/mL.
In series [23], `CO[C@H]1/C=C/O[C@@]2(C)Oc3c(C)c(O)c4c(O)c(c(/C=N/N5CCN(C6CCCC6)CC5)c(O)c4c3C2=O)NC(=O)/C(C)=C\C=C\[C@H](C)[C@H](O)[C@@H](C)[C@@H](O)[C@@H](C)[C@H](OC(C)=O)[C@@H]1C` [RIFAPENTINE] registered an AUC of 319000 ng·h/mL. Further, the Cmax in series [24] was 10000 ng/mL. Further, the time of peak concentration (Tmax) in [25] came to 4.8 h. The same compound had a half-life in series [26] of 13 h. For the same compound, the fraction unbound in [27] is 0.03. Further, the RatioAUC/MIC in series [28] was 76.6. The MIC in series [13] was 0.02 µg/mL (≈ 0.0228 µM).
The compound `CC(C)=CCC/C(C)=C/CNCCNC1C2CC3CC(C2)CC1C3` (stereo unspecified) [SQ109] returned an MIC in series [2] of 0.16 µg/mL (≈ 0.484 µM). Also, the fraction unbound in series [29], in [30], in series [31] and in series [32] was 0.94 throughout.

The values above are taken from ChEMBL document CHEMBL1687721, “New drugs against tuberculosis: problems, progress, and evaluation of agents in clinical development” (Antimicrob Agents Chemother, 2009).
